Measured values taken from US20140066365A1, “USE OF CALIXARENES ASSOCIATED WITH AN ANTIBIOTIC IN THE TREATMENT OF BACTERIAL INFECTIONS” (priority 2011, published 2014).
Like-named read-outs stand apart in the source and are kept apart here.

Key:
[1] = test system: MRSA strain having a resistance to the aminoglycosides and fluoroquinolones (SaR3); assay: MIC of the compounds used alone, microdilution in a liquid medium (CLSI); assay type: cell-based, Staphylococcus aureus; details: Staphylococcus aureus, MRSA; antibiotic alone (second value of cell); SaR3; read-out: MIC
From the text: (§1) The MICs of the antibiotics were previously defined for each strain, by the method of microdilution in a liquid medium (CLSI (Clinical and Laboratory Standards Institute), 2003).

[2] = test system: MRSA strain without associated resistance (SaR1); assay: as above; assay type: cell-based, Staphylococcus aureus; details: Staphylococcus aureus, MRSA; antibiotic alone (second value of cell); SaR1; read-out: MIC
From the text: as §1

[3] = as above; assay type: cell-based, Staphylococcus aureus; details: Staphylococcus aureus, MRSA; antibiotic alone (second value of cell); SaR4; read-out: MIC
From the text: as §1

[4] = test system: SaR3: Meticillin-Resistant Staphylococcus aureus; assay: Antibiogram by the disk diffusion technique; assay type: cell-based
Experimental: (§2) The bacterial and antibiogramidentification is carried out by the VITEK 2 system (bioMérieux) and by the disk diffusion technique

[5] = test system: SaR4: Meticillin-Resistant Staphylococcus aureus; assay: Antibiogram, MIC by the VITEK 2 system; assay type: cell-based; details: SaR4; for MIC: Staphylococcus aureus, read-out: MIC
Experimental: as §2

[6] = test system: Escherichia coli, Staphylococcus aureus and Pseudomonas aeruginosa strains; assay: Chessboard technique, summary statements over all strains and combinations tested; assay type: cell-based; details: strain not stated
From the text: 1.3. Procedure: Chessboard Technique
The same procedure is followed for the Cx1. […] Thus 64 ATB/Cx1 combinations are obtained.
The FIC (Fractional Inhibitory Concentration Index) value is defined by the following formula: […]
When FIC≦0.5, there is a synergistic effect between antibiotic A and antibiotic B.
When 0.5<FIC≦1, there is an additive effect between antibiotic A and antibiotic B.
When 1<FIC≦4, there is an indifferent effect between antibiotic A and antibiotic B.
When FIC>4, there is an antagonistic effect between antibiotic A and antibiotic B.
For each strain and each antibiotic/Cx1 combination, the experiments were repeated a minimum of 3 times.

[7] = test system: SaR1: Meticillin-Resistant Staphylococcus aureus without Associated Resistance; assay: Antibiogram, MIC by the VITEK 2 system; assay type: cell-based; details: SaR1
Experimental: (§3) The bacterial and antibiogramidentification is carried out by the VITEK 2 system (bioMérieux)

[8] = test system: SaR1: Meticillin-Resistant Staphylococcus aureus without Associated Resistance; assay: Antibiogram, inhibition diameter (Table D1); assay type: cell-based
Experimental: as §3

[9] = test system: Staphylococcus aureus strain ATCC 29213 (wild type); assay: MIC of the compounds used alone, microdilution in a liquid medium (CLSI); assay type: cell-based; details: Staphylococcus aureus, ATCC29213; antibiotic alone (second value of cell); S. aureus ATCC 29213; read-out: Initial MICs
From the text: as §1

Structure (SMILES): CC(=O)O[C@H]1C[C@@]2(C)[C@@H](C[C@@H](O)[C@H]3[C@@]4(C)CC[C@@H](O)[C@@H](C)[C@@H]4CC[C@@]32C)/C1=C(\CCC=C(C)C)C(=O)O [Fusidic acid]
- MIC [1]: 0.25 µg/mL
- MIC [2]: 0.5 µg/mL
- MIC [3]: 4 µg/mL
- CA-SFM Interpretation ([4]; Cd CA-SFM 2011): Susceptible
- EUCAST Interpretation ([4]; Cd EUCAST 2011): Susceptible
- Diameter ([4]; Table E1): 29 mm
- Results ([4]; Table E1, against Dmin Dmax): Susceptible
- diameter in mm ([4]; Table E2): 29 mm
- Results ([5]; Table F1, MIC): Susceptible
- CA-SFM Interpretation ([5]; from MIC, Cc CA-SFM 2011): Susceptible
- EUCAST Interpretation ([5]; from MIC, Cc EUCAST 2011): Susceptible
- MIC ([5]; Table F1): ≤ 1 µg/mL
- MIC ([5]; Table F2, MIC): ≤ 1 µg/mL
- interaction between the antibiotic and Cx1 [6]: synergism
- CA-SFM Interpretation ([7]; Cc CA-SFM 2011): Susceptible
- EUCAST Interpretation ([7]; Cc EUCAST 2011): Susceptible
- Results ([7]; Table D1, from MIC): Susceptible
- MIC mg/L ([7]; Table D2): ≦0.5 mg/L
- MIC ([7]; Staphylococcus aureus, Table D1, read-out: MIC): ≤ 0.5 µg/mL
- Diameter [8]: 28 mm
- Results ([8]; from diameter, against Dmin Dmax): Susceptible
- MIC [9]: 2 µg/mL
